Measurements taken from article PMC8305768, “Design, Synthesis and Antiparasitic Evaluation of Click Phospholipids” (Molecules, 2021).
Structures can show the parent of a compound that is named as a salt.

How the values were obtained:
CYP2C19 = biological target: T1, CYP2C19 (Homo sapiens, UniProt P33261); test: Cytochrome P450 inhibition assay (P450-Glo) CYP2C19; assay type: in vitro ADME; conditions: compounds 10 μM; miltefosine 10 μM or 1 μM
T1 construct: purchased Corning Inc; host or cells: baculovirus-infected insect cells
Description: Cytochrome (CYP) P450 inhibition assay: These assays made use of microsomal preparations of CYP450 (1A2, 2C9, 2C19, 2D6 and 3A4) from baculovirus-infected insect cells (Corning Inc., Corning, NY, USA) and cytochrome c reductase (and cytochrome b5 for CYP450 3A4). For detection of CYP450 activity, the luminescence-based P450-Glo (Promega Corp., Madison, WI, USA) assay system was used that contained a luminogenic CYP450 substrate, lyophilized luciferin detection reagent and reconstitution buffer. The substrates were luciferin derivatives of CYP450-specific substrates that produce (4S)-4,5-dihydro-2-(6-hydroxybenzothiazolyl)-4-thiazolecarboxylic acid (D-luciferin) after cleavage by CYP450 (CYP450 3A4, luciferin-IPA; CYP450 2C19, luciferin-H EGE; CYP450 2C9, luciferin-H; CYP450 2D6, luciferin-ME EGE; CYP450 1A2, luciferin-1A2). CYP450 reactions were initiated by addition of the NADPH regeneration system to the enzyme–substrate mixture with the luciferin detection reagent stopping the reaction and the D-luciferin being converted to oxyluciferin under the production of light being proportional to the CYP450 activity. The CYP450 assays were performed using the Tecan Fluent liquid-handling automation platform (Tecan Group Ltd., Mannedorf, Switzerland) in the 384-well assay format. Compounds were added into an empty 384-well plate (100 nL/well in 1% v/v DMSO) using the Echo 550 Liquid Handler followed by the addition of 5 μL/well of the CYP450/substrate mixture and incubation for 30 min at 37 °C, after which the reaction was initiated by the addition of the 5 μL/well NADPH regeneration system. After a further 30-min incubation at 37 °C, the CYP450 reaction was stopped and the luciferase reaction was simultaneously initiated by addition of 10 μL/well of luciferin detection reagent, followed by an additional 30-min incubation at 37 °C. The luminescence signal was detected using an Infinite M1000 PRO plate reader (Tecan Group Ltd., Mannedorf, Switzerland). The NCs yielded 0% inhibition (1% v/v DMSO) and standard CYP450 specific inhibitors were used as positive controls, yielding 100% inhibition (CYP450 1A2, alpha-naphthoflavone; CYP450 2C9, sulfaphenazole; CYP450 2C19, troglitazone; CYP450 2D6, quinidine; CYP450 3A4, ketoconazole).
Data analysis: The screening data were obtained in triplicate and analysed using ActivityBase (IDBS, Guildford, UK), and outlier elimination in the control wells was performed using the 3-sigma method. Unless stated, dose–response experiments were performed in the 11-point format with the IC50 value, Hill slope, minimum signal and maximum signal for each dose–response curve obtained using a four-parameter logistic fit in the XE module of ActivityBase (IDBS).

[1] = Cytotoxicity against THP-1 macrophages (MTT); assay type: cell-based; conditions: human, PMA-differentiated THP-1 macrophages, read-out: Toxicity CC50 ± SD Or CC50 Interval Estimation
Procedure: The effect of compounds selected compounds on THP-1-derived macrophages was assessed by the colorimetric MTT assay (3-(4,5-dimethylthiazol-2-yl)-2,5-diphenyl tetrazolium bromide). Briefly, 1 × 10^5 THP-1 cells/mL were differentiated into macrophages by addition of 20 ng/mL of phorbol-myristate 13-acetate (PMA, Sigma, Saint Louis, MI, USA) for 18 h, followed by replacement with fresh medium for 24 h. Cells were incubated with 100 µL of compounds ranging from 100 to 1 µM after dilution in the RPMI complete medium containing a maximum amount of 1% DMSO. After incubation for 72 h, the medium was removed and 100 µL of 0.5 mg/mL MTT solution diluted in RPMI was added. Plates were incubated for an additional 4 h to allow viable cells to convert MTT into a purple formazan product. Solubilization of formazan crystals was achieved by the addition of 2-propanol and absorbance was read at 570 nm using a Synergy 2 Multi-Mode Reader (Biotek, Winooski, VT, USA). Cytotoxicity was evaluated by the determination of the CC50 value (drug concentration that reduced the percentage of viable cells in 50%) and calculated by non-linear regression analysis using GraphPad Prism version 8.1.1 for Windows (GraphPad Software, San Diego, CA, USA).

[2] = system: mitochondria of 786-0 cells; test: Mitochondrial toxicity assay (MitoTracker Red CMXRos, 786-0 cells); assay type: cell-based; conditions: compounds 10 μM, miltefosine 10 μM or 1 μM
Procedure: Mitochondrial toxicity assay: This assay made use of the MitoTracker Red CMXRos dye (Thermo Fischer Scientific, Waltham, MA, USA), which stains the mitochondria in live cells and its accumulation is dependent on the presence of a membrane potential. The renal carcinoma 786-0 cell line was used for mitochondrial toxicity screening. Cells were harvested from a 75 cm^2 flask at 80% confluency by washing once with 5 mL of rt PBS and incubating with 1 mL of 0.05% v/v trypsin/0.02% v/v EDTA for 3 min. Cells were suspended in 10 mL of prewarmed cell culture media (RPMI-1 640 supplemented with 10% v/v FCS, 100 U/mL penicillin and 100 μg/mL streptomycin) and counted using a Scepter (Merck Millipore, Darmstadt, Germany). The 786-0 cells were diluted to 75,000 cells/mL and 20 μL of this suspension added to each well of a 384-well plate. Cells were incubated for 36 h at 37 °C and 5% CO2, and compounds were added using a predilution plate. The positive control was valinomycin at a final concentration of 1 μM, with the negative control being DMSO at the same concentration. Ten microliters of compounds and controls were added to cells and incubated for 6 h at 37 °C and 5% CO2 in a humidity controlled atmosphere. After incubation, 10 μL of a 200 nM solution of MitoTracker Red CMXRos in prewarmed cell culture media was added to each well, and the 786-0 cells were incubated for an additional 45 min at 37 °C and 5% CO2. MitoTracker Red CMXRos uptake was measured using an Opera Imaging System. To facilitate automatic image analysis, the layout containing the compound area and the valinomycin and DMSO control areas were created and stored. A sublayout of five evenly dispersed fields per well were used. These settings also included a measurement height of 1 μm, which was stored in an exposure file format. By using the stored settings and files, an automated run was repeatedly created and executed. The images were transferred to a file server and uploaded into Columbus 2.4.0 (PerkinElmer, Waltham, MA. USA) using the built-in helper function and analysed therein.

T1 sequence (P33261 whole entry): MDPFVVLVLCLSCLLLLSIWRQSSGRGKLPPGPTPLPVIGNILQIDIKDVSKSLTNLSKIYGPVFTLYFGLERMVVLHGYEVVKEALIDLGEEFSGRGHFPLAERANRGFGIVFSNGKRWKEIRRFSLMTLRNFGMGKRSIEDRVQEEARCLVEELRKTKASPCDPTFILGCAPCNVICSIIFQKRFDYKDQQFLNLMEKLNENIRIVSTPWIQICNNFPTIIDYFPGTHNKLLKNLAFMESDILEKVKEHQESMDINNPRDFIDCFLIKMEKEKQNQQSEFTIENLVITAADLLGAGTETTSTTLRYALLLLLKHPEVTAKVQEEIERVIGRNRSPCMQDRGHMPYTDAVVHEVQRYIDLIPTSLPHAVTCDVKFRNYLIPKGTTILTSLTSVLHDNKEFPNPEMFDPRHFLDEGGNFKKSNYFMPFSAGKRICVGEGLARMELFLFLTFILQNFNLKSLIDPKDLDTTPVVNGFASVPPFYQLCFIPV

| Compound | % inhibition ± SD at 10 μΜ CYP2C19 (CYP2C19) | CC50 at 72 h [1] | % toxicity ± SD at 10 μΜ Mitochondria [2] |
| --- | --- | --- | --- |
| C[N+](C)(C)CCOP(=O)([O-])OCCCCCCCCCCCn1cc(CCCCCCCCC(=O)O)nn1 [Compound 34, 11-(4-(8-carboxyoctyl)-1H-1,2,3-triazol-1-yl)undecyl (2-(trimethylammonio)ethyl) phosphate inner salt] | 4.89% | 50 to 100 µM | – |
| CCCCCCCCCCCCCCCCOP(=O)([O-])OCC[N+](C)(C)C [Miltefosine, hexadecylphosphocholine, reference compound] | 7.92% | 15.9 ± 1.2 µM | 3.99% |
| C[N+](C)(C)CCCOP(=O)([O-])OCCCCCCCCCCCn1cc(CC2CCCCC2)nn1 [Compound 33, 11-(4-(cyclohexylmethyl)-1H-1,2,3-triazol-1-yl)undecyl (3-(trimethylammonio)propyl) phosphate inner salt] | 4.22% | > 10 µM | -1 ± 4.35% |
| C[N+](C)(C)CCOP(=O)([O-])OCCCCCCCCCCCn1cc(CC2CCCCC2)nn1 [Compound 29, 11-(4-(cyclohexylmethyl)-1H-1,2,3-triazol-1-yl)undecyl (2-(trimethylammonio)ethyl) phosphate inner salt] | –28.74% | > 100 µM | 1.08% |
| C[N+](C)(C)CCOP(=O)([O-])OCCCCCCCCCCCn1cc(CCCCCCCCNC(=O)OCc2ccccc2)nn1 [Compound 32, 11-(4-(8-(((benzyloxy)carbonyl)amino)octyl)-1H-1,2,3-triazol-1-yl)undecyl (2-(trimethylammonio)ethyl) phosphate inner salt] | – | > 100 µM | – |
| CCCCCCCCCCCc1nnc(CCCCCCCCCCOP(=O)([O-])OCC[N+](C)(C)C)o1 [Compound 66, 2-(trimethylammonio)ethyl (10-(5-undecyl-1,3,4-oxadiazol-2-yl)decyl) phosphate inner salt] | 23.97% | 25 to 50 µM | 19.78% |
| C[N+](C)(C)CCOP(=O)([O-])OCCCCCn1cc(CCCCCCCCNC(=O)OCc2ccccc2)nn1 [Compound 31, 5-(4-(8-(((benzyloxy)carbonyl)amino)octyl)-1H-1,2,3-triazol-1-yl)pentyl (2-(trimethylammonio)ethyl) phosphate inner salt] | –2.38% | > 100 µM | 5.07% |
| CCCCCCCCc1noc(CCCCCCCCCCOP(=O)([O-])OCC[N+](C)(C)C)n1 [Compound 54, 10-(3-octyl-1,2,4-oxadiazol-5-yl)decyl (2-(trimethylammonio)ethyl) phosphate inner salt] | 10.43% | > 10 µM | 8.56% |
| C[N+](C)(C)CCOP(=O)([O-])OCCCCCn1cc(CCCCCCCCN)nn1 [Compound 35, 5-(4-(8-aminooctyl)-1H-1,2,3-triazol-1-yl)pentyl (2-(trimethylammonio)ethyl) phosphate inner salt] | –3.09% | > 100 µM | 6.58% |
| CCCCCCCc1nnc(CCCCCCCCCCOP(=O)([O-])OCC[N+](C)(C)C)o1 [Compound 65, 10-(5-heptyl-1,3,4-oxadiazol-2-yl)decyl (2-(trimethylammonio)ethyl) phosphate inner salt] | –1.75% | 12.5 to 25 µM | 40.25% |
| CCCCCCCCCCc1cc(CCCCCCCCCCOP(=O)([O-])OCC[N+](C)(C)C)no1 [Compound 41, 10-(5-decylisoxazol-3-yl)decyl (2-(trimethylammonio)ethyl) phosphate inner salt] | 5.65% | 12.5 to 25 µM | 2.99% |
| CCCCCCCCc1noc(CCCCCOP(=O)([O-])OCC[N+](C)(C)C)n1 [Compound 53, 5-(3-octyl-1,2,4-oxadiazol-5-yl)pentyl (2-(trimethylammonio)ethyl) phosphate inner salt] | –17.22% | 12.5 to 25 µM | –1.08% |
| CCCCCc1cn(CCCCCCCCCCCOP(=O)([O-])OCC[N+](C)(C)C)nn1 [Compound 25, 11-(4-pentyl-1H-1,2,3-triazol-1-yl)undecyl (2-(trimethylammonio)ethyl) phosphate inner salt] | –32.10% | > 100 µM | 11.05% |
| C[N+](C)(C)CCOP(=O)([O-])OCCCCCCCCCCCn1cc(CC2CCCC2)nn1 [Compound 28, 11-(4-(cyclopentylmethyl)-1H-1,2,3-triazol-1-yl)undecyl (2-(trimethylammo nio)ethyl) phosphate inner salt] | –32.71% | > 100 µM | 8.99% |
